Data set [1] in a line: Stability of QC samples in rat plasma (short-term, freeze-thaw, long-term). It is filed as in vitro ADME. The settings on record: for Short-term stability, Mean ± SD: room temperature for 4 h; for Freeze-thaw stability, Mean ± SD: three freeze (−20°C) and thaw cycles; for Long-term stability, Mean ± SD: −20°C for 20 days. On the procedure: (§1) Standard stock solutions were prepared by dissolving reference standards in methanol to yield concentrations of 198 µg/mL for meranzin hydrate, 128 µg/mL for naringenin, 273 µg/mL for hesperetin, and 4.56 µg/mL for SMZ. All solutions were stored at 4°C. QC samples were prepared at three concentration levels containing meranzin hydrate (6.5, 206, 3300 ng/mL), naringenin (13.9, 222, 3555 ng/mL), and hesperetin (3.7, 29.5, 236 ng/mL). Plasmas (100 µL) were spiked with β-glucuronidase (5 µL) and acetic acid buffer solution (10 µL), subsequently vortexed for 10 seconds, and incubated for 4 h at 37°C. Then, SMZ (50 µL) and methanol (135 µL) were added, ultrasound was done for 10 min, and centrifugation at 12000 rpm (4°C) for 10 min was performed. The supernatant (50 µL) was transferred, distilled water (50 µL) was added, then ultrasound and centrifugation again. At last, the supernatant of 5 µL was injected into UPLC.
(5) Stability. QC plasma samples of each concentration at low, medium, and high levels were detected. The freeze and thaw stability were investigated after three freeze (−20°C) and thaw (room temperature) cycles on consecutive days. Long-term stability was studied by storing QC samples at −20°C for 20 days. Short-term stability was assessed by analyzing QC samples kept at room temperature for 4 h.

Data set [2] can be described thus: Pharmacokinetic study in rats after oral administration of FA decoction. It is filed as in vivo, Sprague-Dawley rats. The settings on record: for Cmax / AUC(0-t) / Tmax / MRT last / half-life: male, Sprague-Dawley, rat plasma; for AUC(0-t): last dose day 8, plasma treated with β-glucuronidase; for MRT last: read-out: MRT(0–t); for half-life: read-out: t 1/2z (converted); for AUC(0–t) elevation, 30 g/kg compared with the 15 g/kg group / C max elevation, 30 g/kg compared with the 15 g/kg group: rat, oral FA decoction; for detection in rat plasma: even after orally administering 30 g/kg FA decoction. On the procedure:
16 male Sprague-Dawley (SD) rats weighing 200 ± 20 g were from experimental animal center of Central South University and fostered in an environmentally controlled room (temperature: 22–26°C, humidity: 40–60%, and 12 h dark-light cycle) for 1 week before the experiment. All experimental procedures were implemented strictly according to the guidelines of the Animal Care and Use Committee, Central South University, China. This research was approved by the Animal Ethics Committee of Central South University. Rats were randomly divided into 2 groups (n=8): low-dose group (15 g/kg FA decoction) and high-dose group (30 g/kg FA decoction). The two groups were given by gavage twice a day for 7 days in succession. At the 7th day of medication, the rats were prohibited feeding for about 12 hours without restriction of water. On day 8, the rats were orally administered for the last time at 8 am, and then plasma samples (0.5 mL) were collected from the caudal vein at 5, 10, 20, 30, 60, 90, 240, 360, 480, and 600 min into heparinized vacuum tubes, followed by centrifugation at 3500 rpm (4°C) for 10 min. Then, the plasmas were obtained and immediately stored at −20°C until analysis. During the experiment, the rats were injected intraperitoneally with physiological saline for maintaining fluid balance.
as §1
The database was set up with the SPSS 17.0 software package from SPSS Inc., Chicago, Illinois (US). Differences between the two groups were analyzed by one-way analysis of variance. A two-tailed P value of <0.05 was considered statistically significant. The DAS 3.2.8 pharmacokinetic program (Chinese Pharmacological Society) was used to process pharmacokinetic parameters.
The validated method was applied to determine the plasma concentrations of meranzin hydrate, naringenin, and hesperetin in rats after oral administration of FA decoction at a dose of 15 g/kg and 30 g/kg body weight. The mean plasma concentration-time profiles of meranzin hydrate, naringenin, and hesperetin are shown in Figure 4, and the estimated pharmacokinetic parameters are illustrated in Table 5. According to DAS software, the optimal metabolism process of the 3 components in rats could be depicted as a two-compartment pharmacokinetic model.

Data set [3] in a line: Stability of the analytical solution of FA decoction at environmental temperature. It is filed as physicochemical. The settings on record: FA decoction 1.7 g/mL. The procedure:
The raw herb (200 g) was immersed in distilled water (1 : 8, w/v) for 0.5 h at room temperature and thereafter was boiled for 0.5 h. The filtrate was collected, and the residue was boiled again in distilled water (1 : 6, w/v) for 0.5 h. The filtrates were mixed together, filtered through a 0.45 µm porous filtration membrane, then farther concentrated in the rotary evaporator to a final concentration equivalent to 1.7 g/mL FA, and stored at −20°C until analyzed. In the experiment, FA decoction (100 µL) was precisely measured, 900 µL methanol was added, then ultrasound was done for 5 min, and it was centrifuged at 15000 rpm (4°C) for 10 min; the supernatant liquor (20 µL) was shifted to a 1.5 mL EP tube, methanol-water (780 µL) was added, and ultrasound was performed, and it was centrifuged at 15000 rpm (4°C) for 10 min again. Finally, 5 µL of the supernatant liquor was injected into the apparatus for detection.
The stability of the analytical solution at environmental temperature was studied by detecting sample solution at 0, 2, 4, 8, 12, and 24 h. The RSD values of peak areas were taken for assessment.

[4] abbreviates: high level (spiked 3300.0 / 3555.0 / 236.0 ng/mL).
The mark [5] stands for this setting: low level (spiked 6.5 / 13.9 / 3.7 ng/mL).
Where [6] appears, read: medium level (spiked 206.0 / 222.0 / 29.5 ng/mL).
The mark [7] stands for this setting: oral FA decoction 15 g/kg twice a day for 7 days, n=8.
Setting [8] is: oral FA decoction 30 g/kg twice a day for 7 days, n=8.

Where two headings read alike, the source gives them in different places.

The term Cmax denotes the maximum level reached in the sampled fluid or tissue. By Tmax is commonly meant the time at which the peak concentration occurs. On to `COc1ccc([C@@H]2CC(=O)c3c(O)cc(O)cc3O2)cc1O` [Hesperetin, hesperetin], for which the results for the “Short-term stability, Mean ± SD” value in data set [1] (setting [4]), in data set [1] (setting [5]) and in data set [1] (setting [6]) were 234.18 ± 22.13 ng/mL, 3.63 ± 0.87 ng/mL and 27.88 ± 3.50 ng/mL, respectively. Moreover, the entries for the “Freeze-thaw stability, Mean ± SD” value in data set [1] (setting [4]), in data set [1] (setting [5]) and in data set [1] (setting [6]) were 235.03 ± 19.71 ng/mL, 3.52 ± 0.43 ng/mL and 28.35 ± 4.03 ng/mL, respectively. In addition, the “Long-term stability, Mean ± SD” value in data set [1] (setting [4]) was determined as 235.66 ± 14.53 ng/mL; in data set [1] (setting [5]) it was 3.67 ± 0.57 ng/mL; in data set [1] (setting [6]), 28.28 ± 1.65 ng/mL. The Cmax in data set [2] (oral, 15 g/kg group) was found to be 83.9 ± 14.2 ng/mL; in data set [2] (oral, 30 g/kg group), 174 ± 39 ng/mL; in data set [2] (oral FA decoction 15 g/kg, n=8) it was 83.9 ± 14.2 ng/mL; in data set [2] (oral FA decoction 30 g/kg, n=8), 174 ± 39 ng/mL. In addition, the AUC(0-t) in data set [2] (setting [7]) was found to be 508 ± 88 ng·h/mL; in data set [2] (setting [8]), 955 ± 227 ng·h/mL. The Tmax in data set [2] (oral FA decoction 15 g/kg, n=8) amounted to 1 ± 0.38 h; in data set [2] (oral FA decoction 30 g/kg, n=8), 1.31 ± 0.26 h. For the same molecule, the MRT last in data set [2] (oral FA decoction 15 g/kg, n=8) was found to be 4.27 ± 0.27 h; in data set [2] (oral FA decoction 30 g/kg, n=8), 4.15 ± 0.35 h. In addition, the half-life in data set [2] (oral FA decoction 15 g/kg, n=8) is 483 ± 186 min; in data set [2] (oral FA decoction 30 g/kg, n=8) it was 394 ± 201 min. Also, in data set [2], the “AUC(0–t) elevation, 30 g/kg compared with the 15 g/kg group” value is recorded as 1.88 fold. Besides, in data set [2], the “C max elevation, 30 g/kg compared with the 15 g/kg group” value came out at 2.08 fold. Besides, the “Stability in FA decoction, Content” value in data set [3] (0h) is reported as 0.19 mg/mL; in data set [3] (2h), 0.19 mg/mL; in data set [3] (4h), 0.18 mg/mL; in data set [3] (8h), 0.18 mg/mL; in data set [3] (12h), 0.19 mg/mL; in data set [3] (24h), 0.18 mg/mL.
On to `COc1ccc2ccc(=O)oc2c1C[C@@H](O)C(C)(C)O` [Meranzin hydrate, meranzin hydrate], for which the AUC(0-t) in data set [2] (setting [7]) was 1530 ± 252 ng·h/mL; in data set [2] (setting [8]), 7370 ± 887 ng·h/mL. Further, the Cmax stood at 505 ± 64.3 ng/mL in data set [2] (oral FA decoction 15 g/kg, n=8) and 1830 ± 221 ng/mL in data set [2] (oral FA decoction 30 g/kg, n=8). Also, the Tmax turned out to be 1 ± 0.27 h in data set [2] (oral FA decoction 15 g/kg, n=8) and 1.25 ± 0.27 h in data set [2] (oral FA decoction 30 g/kg, n=8). The MRT last was 2.77 ± 0.34 h in data set [2] (oral FA decoction 15 g/kg, n=8) and 3.21 ± 0.22 h in data set [2] (oral FA decoction 30 g/kg, n=8). Further, the half-life in data set [2] (oral FA decoction 15 g/kg, n=8) was 160 ± 48.6 min; in data set [2] (oral FA decoction 30 g/kg, n=8), 134 ± 35.4 min. Also, the “AUC(0–t) elevation, 30 g/kg compared with the 15 g/kg group” value in data set [2] came out at 4.8 fold. For the same molecule, the “C max elevation, 30 g/kg compared with the 15 g/kg group” value in data set [2] is on record as 3.62 fold. Also, the “Stability in FA decoction, Content” value came to 0.34 mg/mL in data set [3] (0h); 0.36 mg/mL in data set [3] (2h); 0.33 mg/mL in data set [3] (4h); 0.34 mg/mL in data set [3] (8h); 0.35 mg/mL in data set [3] (12h); 0.34 mg/mL in data set [3] (24h).
Consider `COc1ccc([C@@H]2CC(=O)c3c(O)cc(O[C@@H]4O[C@H](CO[C@@H]5O[C@@H](C)[C@H](O)[C@@H](O)[C@H]5O)[C@@H](O)[C@H](O)[C@H]4O)cc3O2)cc1O` [hesperidin], for which the “detection in rat plasma” value in data set [2] is on record as “could not been detected”. The “Stability in FA decoction, Content” value was 4.95 mg/mL in data set [3] (0h); 4.83 mg/mL in data set [3] (2h); 4.71 mg/mL in data set [3] (4h); 5.02 mg/mL in data set [3] (8h); 4.87 mg/mL in data set [3] (12h); 4.82 mg/mL in data set [3] (24h).
`C[C@@H]1O[C@@H](O[C@H]2[C@H](Oc3cc(O)c4c(c3)O[C@H](c3ccc(O)cc3)CC4=O)O[C@H](CO)[C@@H](O)[C@@H]2O)[C@H](O)[C@H](O)[C@H]1O` [naringin]: the “detection in rat plasma” value in data set [2] was “could not been detected”. The “Stability in FA decoction, Content” value in data set [3] (0h) turned out to be 25.24 mg/mL; in data set [3] (2h), 25.35 mg/mL; in data set [3] (4h) it was 24.92 mg/mL; in data set [3] (8h), 25.45 mg/mL; in data set [3] (12h), 24.98 mg/mL; in data set [3] (24h) it was 25.15 mg/mL.
On to `COc1ccc([C@@H]2CC(=O)c3c(O)cc(O[C@@H]4O[C@H](CO)[C@@H](O)[C@H](O)[C@H]4O[C@@H]4O[C@@H](C)[C@H](O)[C@@H](O)[C@H]4O)cc3O2)cc1O` [neohesperidin], for which, in data set [2], the “detection in rat plasma” value was “could not been detected”. In addition, the “Stability in FA decoction, Content” value in data set [3] (0h) turned out to be 14.33 mg/mL; in data set [3] (2h) it was 14.28 mg/mL; in data set [3] (4h) it was 13.98 mg/mL; in data set [3] (8h) it was 14.40 mg/mL; in data set [3] (12h), 14.11 mg/mL; in data set [3] (24h), 14.08 mg/mL.

Source of the values: paper PMC5971337, “Development of an Ultra-High Performance Liquid Chromatography Method for Simultaneous Determination of Six Active Compounds in Fructus aurantii and Rat Plasma and Its Application to a Comparative Pharmacokinetic Study in Rats Administered with Different Doses” (Journal of Analytical Methods in Chemistry, 2018).
